In US7119256B2, “Gene encoding acetolactate synthase” (priority 2000, dated 2006):

What was measured:
[1] = tested on: wild type (Kinmaze) culture cells; test: Growth of wild type rice (Kinmaze) culture cells in liquid medium with herbicide (relative wet weight); assay type: cell-based, Oryza sativa var. Kinmaze
Experimental: Approximately 1.5 g (wet weight) of the resistant mutant was transplanted in 200 ml of a Erlenmeyer flask supplemented with 50 ml of a MS-2,4-D liquid medium and bispyribac-sodium at an appropriate concentration, followed by culturing at approximately 27° C. for an appropriate period. The wet weight of the callus was measured periodically. The relative amount of increase was determined based on the wet weight of the transplanted resistant mutant. In addition, the experiment was performed three times with different bispyribac-sodium concentrations, and the standard error was calculated. […] As a control, a similar experiment was conducted using the wild type (Kinmaze).
The growth rates of the wild type and the resistant mutant were measured as described above except for the use of chlorsulfuron instead of bispyribac-sodium.

[2] = tested on: rice plant transformed with the mutant ALS gene; test: Foliar spray of bispyribac-sodium on transformant rice plants, growth survey; assay type: in vivo, rice (Nippon-bare); conditions: 1 kg of a.i./ha with 0.2% surfactant K, sprayed over leaves and stems; about 40 days after spraying
Description: Of 80 hygromycin resistant transformant rice plants potted, those which grew normally at the leaf stage 5 were 27 plants to which the mutant ALS gene had been introduced and 46 plants to which the wild type ALS gene had been introduced. Plants containing the wild type ALS gene introduced therein tended to grow healthier than those containing the mutant ALS gene therein. At this time, 4 plants containing the mutant ALS gene introduced therein and 5 plants containing the wild type ALS gene introduced therein were appropriately selected, and 1 kg of a.i./ha bispyribac-sodium salt supplemented with 0.2% surfactant K was sprayed over the leaves and stems. In FIG. 40, the plant length A was about 90 cm.

[3] = tested on: callus of a rice plant (Nippon-bare) transformed with a mutant ALS gene; test: Bispyribac-sodium sensitivity of calli of rice transformed with the mutant ALS gene; assay type: cell-based
Experimental: Simultaneously with the above described potting, part of the calli which had not redifferentiated (9 calli) (FIG. 35) was sub-cultured on solid media for production of a bispyribac-sodium resistant callus used in Example 1. The solid media contained 10 μM bispyribac-sodium. Thus, 6 out of 9 calli grew normally. […] Accordingly, 6 calli grown on a solid medium containing 10 μM bispyribac-sodium were all shown to have strong bispyribac-sodium resistance.

[4] = target: T1, wild type ALS protein (Oryza sativa subsp. japonica, UniProt Q6K2E8); test: Herbicide sensitivity of crude wild type ALS expressed in E. coli, in presence of valine; assay type: biochemical, rice; parameters: one type of cDNA containing a full length ALS gene could be obtained from a cDNA library derived from the wild type; made in house; host or cells: E. coli JM 105, pGEX-2T; crude enzyme solution (sonicate supernatant); conditions: crude enzyme from E. coli, valine added
T1 sequence (Q6K2E8 44-644): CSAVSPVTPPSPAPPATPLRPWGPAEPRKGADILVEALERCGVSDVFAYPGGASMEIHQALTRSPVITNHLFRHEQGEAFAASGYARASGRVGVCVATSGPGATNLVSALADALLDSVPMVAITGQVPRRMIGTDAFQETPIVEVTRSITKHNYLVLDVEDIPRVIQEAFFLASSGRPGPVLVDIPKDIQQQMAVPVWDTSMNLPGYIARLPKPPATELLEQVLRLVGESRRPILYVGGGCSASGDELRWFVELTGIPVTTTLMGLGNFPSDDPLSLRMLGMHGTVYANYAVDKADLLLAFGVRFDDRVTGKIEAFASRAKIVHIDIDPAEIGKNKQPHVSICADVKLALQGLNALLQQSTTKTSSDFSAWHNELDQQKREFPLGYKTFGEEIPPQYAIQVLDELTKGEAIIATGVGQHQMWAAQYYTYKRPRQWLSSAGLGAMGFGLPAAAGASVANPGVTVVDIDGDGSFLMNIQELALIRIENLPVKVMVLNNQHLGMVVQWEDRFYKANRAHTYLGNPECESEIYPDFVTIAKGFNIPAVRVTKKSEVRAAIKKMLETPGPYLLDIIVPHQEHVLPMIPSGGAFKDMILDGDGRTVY
Experimental: Preparation and purification of ALS from E. coli were performed by the following method. First, a pellet of the transformant E. coli stored at −80° C. was suspended in ALS extraction buffer (potassium phosphate buffer (pH 7.5) containing 30% glycerol and 0.5 mM MgCl2). Specifically, 2.5 ml of the buffer was added to the pellet obtained from 50 ml of the culture solution. The suspension was subjected to ultrasonication (Heat Systems-Ultrasonics, Sonicator W-225R, micro chip, output control 8, interval of approximately 1 sec, twice (40 sec each)), and subjected to centrifugation at 15000×g, 4° C. for 20 min, thereby obtaining the supernatant as a crude enzyme solution.
Herbicide sensitivity of mutant ALS protein was examined using the crude enzyme solution obtained in Example 4. Herbicide sensitivity test was performed in the manner same as that in Example 2. In the herbicide sensitivity test, three herbicides, bispyribac-sodium, pyrithiobac-sodium, and pyriminobac were used as PC herbicides; four drugs, chlorsulfuron, bensulfuron-methyl, pyrazosulfuron-ethyl and imazosulfuron were used as sulfonylurea herbicides; and two drugs, imazaquin, and imazapyr were used as imidazolinon herbicides. […]

[5] = tested on: callus of the wild type rice plant (Nippon-bare); test: Bispyribac-sodium sensitivity of callus of wild type rice plant; assay type: cell-based

| Compound | growth of the wild type (relative weight on day 9) ([1]; 1 nM chlorsulfuron) | growth of the wild type (relative weight on day 8) ([1]; 1 nM bispyribac-sodium) | growth of the wild type (relative weight on day 8) ([1]; 10 nM or more bispyribac-sodium) | growth of plant containing the mutant ALS gene after spraying [2] | calli that grew normally on solid medium ([3]; 10 μM bispyribac-sodium) | drug sensitivity of transformant callus in liquid culture ([3]; one of the 6 normally growing calli) | wild type ALS activity in the presence of herbicide [4] | drug sensitivity of wild type callus [5] |
| --- | --- | --- | --- | --- | --- | --- | --- | --- |
| COc1nc(C)nc(NC(=O)NS(=O)(=O)c2ccccc2Cl)n1 [Chlorsulfuron, chlorsulfuron] | inhibited |  |  |  |  |  |  |  |
| COc1cc(OC)nc(Oc2cccc(Oc3nc(OC)cc(OC)n3)c2C(=O)[O-])n1.[Na+] [Bispyribac-sodium, bispyribac-sodium] |  | not inhibited | inhibited | grew almost normally | 6 out of 9 | showed bispyribac-sodium resistance | inhibited | showed bispyribac-sodium sensitivity |
